A word on the Ki: it is a measure of affinity in units of concentration, obtained from inhibition or displacement. Broadly, the IC50 is the midpoint of a concentration-inhibition curve.

Experiment [1] has as its target T1, NDM-1 (Klebsiella pneumoniae, UniProt C7C422). Briefly: biochemical. Particulars: cleavage of imipenem (100 uM) by NDM-1; read-out: Ki, Imipenem.
The next experiment has as its target T2, VIM-1 (Pseudomonas aeruginosa, UniProt A0A0F7KYQ8).
T2 construct: made in house; host or cells: ECM6711 strain carrying pUCP24-VIM-1 plasmid; culture supernatant used unpurified
Put plainly: biochemical. Particulars: cleavage of nitrocefin (200 uM) by VIM-1 supernatant.

The target in experiment [2] is T1, NDM-1. Briefly: Inhibition of purified class B carbapenemase NDM-1 (Ki, imipenem substrate). It counts as biochemical. The conditions noted are these: NDM-1, substrate imipenem; read-out: Ki NDM-1, Imipenem.
Experiment [3] concerns the target purified class A, C and D enzymes (Enterobacter cloacae, UniProt P05364). Type of experiment: biochemical. Particulars: purified P99/AmpC of ECL; nitrocefin reporter substrate.
In experiment [4] the target is purified class A, C and D enzymes (Escherichia coli, UniProt Q9L5C7). Type of experiment: biochemical. The conditions noted are these: purified CTX-M-14; nitrocefin reporter substrate.
Experiment [5] deals with T3, purified class A, C and D enzymes (UniProt P0AD64, L31Q/G234S/E235K, species not given).
T3 construct: Ki (SHV-12, NCF); other: purified SHV-12; nitrocefin reporter substrate
T3 sequence (P0AD64 1-286 L31Q/G234S/E235K): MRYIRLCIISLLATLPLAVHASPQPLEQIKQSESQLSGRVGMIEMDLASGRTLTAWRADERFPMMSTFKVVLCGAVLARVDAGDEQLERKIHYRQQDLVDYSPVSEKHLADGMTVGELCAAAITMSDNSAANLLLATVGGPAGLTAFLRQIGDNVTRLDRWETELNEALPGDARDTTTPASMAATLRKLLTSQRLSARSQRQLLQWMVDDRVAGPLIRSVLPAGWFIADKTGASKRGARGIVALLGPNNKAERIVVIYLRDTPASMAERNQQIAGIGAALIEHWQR
It counts as biochemical. Particulars: read-out: Ki (SHV-12, NCF); purified SHV-12; nitrocefin reporter substrate.

Experiment [6] addresses T4, purified class A, C and D enzymes (UniProt Q6XEC0).
T4 construct: rows headed: Ki (OXA-48, NCF); other: purified OXA-48; nitrocefin reporter substrate
Type of experiment: biochemical. The conditions noted are these: read-out: Ki (OXA-48, NCF); purified OXA-48; nitrocefin reporter substrate.

Experiment [7] has as its target T5, purified class A, C and D enzymes (UniProt Q9F663).
T5 construct: rows headed: Ki (KPC-2, NCF); other: purified KPC-2; nitrocefin reporter substrate
Type of experiment: biochemical. The conditions noted are these: read-out: Ki (KPC-2, NCF); purified KPC-2; nitrocefin reporter substrate.

Molecules are shown by their SMILES.

T1 sequence (C7C422 29-270, looked up, species assumed): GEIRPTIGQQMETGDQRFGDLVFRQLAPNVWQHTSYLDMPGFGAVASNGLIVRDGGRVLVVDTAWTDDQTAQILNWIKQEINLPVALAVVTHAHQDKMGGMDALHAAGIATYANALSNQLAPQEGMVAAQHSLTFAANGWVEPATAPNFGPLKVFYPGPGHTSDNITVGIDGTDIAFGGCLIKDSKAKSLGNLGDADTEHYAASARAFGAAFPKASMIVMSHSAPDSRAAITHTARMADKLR
purified class A, C and D enzymes (Enterobacter cloacae, UniProt P05364), sequence (P05364 21-381): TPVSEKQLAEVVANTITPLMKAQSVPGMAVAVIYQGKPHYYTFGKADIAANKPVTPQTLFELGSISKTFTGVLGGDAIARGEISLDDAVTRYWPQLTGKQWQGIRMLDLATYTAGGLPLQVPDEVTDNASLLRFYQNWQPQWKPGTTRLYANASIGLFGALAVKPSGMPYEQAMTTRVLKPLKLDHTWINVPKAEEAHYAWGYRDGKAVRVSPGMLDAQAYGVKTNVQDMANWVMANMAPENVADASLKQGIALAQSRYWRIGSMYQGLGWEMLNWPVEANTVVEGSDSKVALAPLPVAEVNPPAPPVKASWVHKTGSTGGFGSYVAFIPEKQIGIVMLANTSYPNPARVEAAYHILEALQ
purified class A, C and D enzymes (Escherichia coli, UniProt Q9L5C7), sequence (Q9L5C7 entry or part of it): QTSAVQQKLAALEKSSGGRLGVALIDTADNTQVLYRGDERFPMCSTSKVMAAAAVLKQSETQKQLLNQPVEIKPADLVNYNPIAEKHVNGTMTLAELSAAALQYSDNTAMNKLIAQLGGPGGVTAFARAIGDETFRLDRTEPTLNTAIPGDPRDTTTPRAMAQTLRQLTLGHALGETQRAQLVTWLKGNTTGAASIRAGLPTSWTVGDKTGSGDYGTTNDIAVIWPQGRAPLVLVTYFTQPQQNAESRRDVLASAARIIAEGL

With `NC(=O)c1cnc(S[C@H]2Cc3ccc(F)c(C(=O)O)c3OB2O)s1` [Compound 53, (3R)-3-(5-carbamoylthiazol-2-yl)sulfanyl-7-fluoro-2-hydroxy-3,4-dihydro-1,2-benzoxaborinine-8-carboxylic acid], the Ki was > 100 nM at NDM-1 [1]; > 100 nM on NDM-1 [2]; < 100 nM in experiment [5]; < 100 nM in experiment [6]; < 100 nM in experiment [7]. For the same molecule, the concentration for half-maximal inhibition (IC50) against VIM-1 is < 1000 nM. In experiment [3], the “Ki (P99/AmpC of ECL, NCF)” value is on record as “Y (0.1 μM to 1 μM)”. Further, the “Ki (CTX-M-14, NCF)” value in experiment [4] is listed as “X (Less than 0.1 μM)”.

As to `NC(=O)c1csc(S[C@H]2Cc3ccc(F)c(C(=O)O)c3OB2O)n1` [Compound 54, (3R)-3-(4-carbamoylthiazol-2-yl)sulfanyl-7-fluoro-2-hydroxy-3,4-dihydro-1,2-benzoxaborinine-8-carboxylic acid], the Ki is > 100 nM at NDM-1 [1]; > 100 nM on NDM-1 [2]; < 100 nM in experiment [5]; < 100 nM in experiment [6]; < 100 nM in experiment [7]. In addition, the IC50 against VIM-1 is < 1000 nM. In addition, in experiment [3], the “Ki (P99/AmpC of ECL, NCF)” value is given as “Y (0.1 μM to 1 μM)”. Further, the “Ki (CTX-M-14, NCF)” value in experiment [4] was “X (Less than 0.1 μM)”.

With `O=C(O)c1c(F)ccc2c1OB(O)[C@@H](Sc1nnc(C(F)(F)F)s1)C2` [Compound 55, (3R)-7-fluoro-2-hydroxy-3-[[5-(trifluoromethyl)-1,3,4-thiadiazol-2-yl]sulfanyl]-3,4-dihydro-1,2-benzoxaborinine-8-carboxylic acid], the Ki on NDM-1 [1] was > 100 nM; on NDM-1 [2], > 100 nM; in experiment [5] it was 100 to 1000 nM; in experiment [6] it was < 100 nM; in experiment [7] it was 100 to 1000 nM. Besides, the 50% inhibitory concentration (IC50) against VIM-1 is ≥ 1000 nM. The “Ki (P99/AmpC of ECL, NCF)” value in experiment [3] is given as “Y (0.1 μM to 1 μM)”. Besides, the “Ki (CTX-M-14, NCF)” value in experiment [4] is “Y (0.1 μM to 1 μM)”.

In the case of `Cn1ncc(C(N)=O)c1S[C@H]1Cc2ccc(F)c(C(=O)O)c2OB1O` [Compound 56, (3R)-3-(4-carbamoyl-2-methyl-pyrazol-3-yl)sulfanyl-7-fluoro-2-hydroxy-3,4-dihydro-1,2-benzoxaborinine-8-carboxylic acid], the Ki on NDM-1 [1] was > 100 nM; on NDM-1 [2], > 100 nM; in experiment [5], 100 to 1000 nM; in experiment [6] it was < 100 nM; in experiment [7], 100 to 1000 nM. Moreover, the IC50 at VIM-1 was ≥ 1000 nM. Also, the “Ki (P99/AmpC of ECL, NCF)” value in experiment [3] is listed as “Z (Greater than 1 μM)”. Further, in experiment [4], the “Ki (CTX-M-14, NCF)” value is on record as “Y (0.1 μM to 1 μM)”.

On to `NCc1cnc(S[C@H]2Cc3ccc(F)c(C(=O)O)c3OB2O)s1` [Compound 57, (3R)-3-[5-(aminomethyl)thiazol-2-yl]sulfanyl-7-fluoro-2-hydroxy-3,4-dihydro-1,2-benzoxaborinine-8-carboxylic acid], for which the Ki on NDM-1 [1] is 10 to 100 nM; on NDM-1 [2] it was 10 to 100 nM; in experiment [5] it was < 100 nM; in experiment [6], < 100 nM; in experiment [7] it was 100 to 1000 nM. In addition, the concentration for half-maximal inhibition (IC50) on VIM-1 was < 1000 nM. Besides, the “Ki (P99/AmpC of ECL, NCF)” value in experiment [3] is “Z (Greater than 1 μM)”. Moreover, the “Ki (CTX-M-14, NCF)” value in experiment [4] is on record as “X (Less than 0.1 μM)”.

Turning to `O=CNc1cnc(S[C@H]2Cc3ccc(F)c(C(=O)O)c3OB2O)s1` [Compound 58, (3R)-7-fluoro-3-(5-formamidothiazol-2-yl)sulfanyl-2-hydroxy-3,4-dihydro-1,2-benzoxaborinine-8-carboxylic acid], the Ki at NDM-1 [1] is > 100 nM; at NDM-1 [2], > 100 nM; in experiment [5], < 100 nM; in experiment [6], < 100 nM; in experiment [7], 100 to 1000 nM. On VIM-1, the IC50 is < 1000 nM. The “Ki (P99/AmpC of ECL, NCF)” value in experiment [3] was “Y (0.1 μM to 1 μM)”. Further, the “Ki (CTX-M-14, NCF)” value in experiment [4] is recorded as “X (Less than 0.1 μM)”.

`O=C(O)c1c(F)ccc2c1OB(O)[C@@H](Sc1nncs1)C2` [Compound 59, (3R)-7-fluoro-2-hydroxy-3-(1,3,4-thiadiazol-2-ylsulfanyl)-3,4-dihydro-1,2-benzoxaborinine-8-carboxylic acid]: the inhibition constant Ki was > 100 nM on NDM-1 [1]; > 100 nM at NDM-1 [2]; < 100 nM in experiment [5]; < 100 nM in experiment [6]; < 100 nM in experiment [7]. Moreover, the IC50 against VIM-1 was < 1000 nM. The “Ki (P99/AmpC of ECL, NCF)” value in experiment [3] is recorded as “Y (0.1 μM to 1 μM)”. Further, the “Ki (CTX-M-14, NCF)” value in experiment [4] is recorded as “X (Less than 0.1 μM)”.

`COc1ccc2c(c1C(=O)O)OB(O)[C@@H](Sc1cnns1)C2` [Compound 60, (3R)-2-hydroxy-7-methoxy-3-(thiadiazol-5-ylsulfanyl)-3,4-dihydro-1,2-benzoxaborinine-8-carboxylic acid]: the Ki at NDM-1 [1] is > 100 nM; at NDM-1 [2] it was > 100 nM; in experiment [5], < 100 nM; in experiment [6], < 100 nM; in experiment [7], < 100 nM. The IC50 on VIM-1 was < 1000 nM. The “Ki (P99/AmpC of ECL, NCF)” value in experiment [3] is given as “Z (Greater than 1 μM)”. The “Ki (CTX-M-14, NCF)” value in experiment [4] is “X (Less than 0.1 μM)”.

For `COc1ccc2c(c1C(=O)O)OB(O)[C@@H](Sc1nc(C(N)=O)cs1)C2` [Compound 61, (3R)-3-(4-carbamoylthiazol-2-yl)sulfanyl-2-hydroxy-7-methoxy-3,4-dihydro-1,2-benzoxaborinine-8-carboxylic acid], the Ki at NDM-1 [1] is > 100 nM; on NDM-1 [2], > 100 nM; in experiment [5], < 100 nM; in experiment [6], < 100 nM; in experiment [7], < 100 nM. Besides, the half-maximal inhibitory concentration (IC50) at VIM-1 is < 1000 nM. Besides, the “Ki (P99/AmpC of ECL, NCF)” value in experiment [3] was “Y (0.1 μM to 1 μM)”. Besides, the “Ki (CTX-M-14, NCF)” value in experiment [4] was “X (Less than 0.1 μM)”.

Consider `COc1ccc2c(c1C(=O)O)OB(O)[C@@H](Sc1nnc(NC(C)=O)s1)C2` [Compound 63, (3R)-3-[(5-acetamido-1,3,4-thiadiazol-2-yl)sulfanyl]-2-hydroxy-7-methoxy-3,4-dihydro-1,2-benzoxaborinine-8-carboxylic acid], for which the Ki at NDM-1 [1] was > 100 nM; on NDM-1 [2], > 100 nM; in experiment [5], < 100 nM; in experiment [6] it was < 100 nM; in experiment [7], 100 to 1000 nM. Also, the IC50 against VIM-1 was < 1000 nM. Also, in experiment [3], the “Ki (P99/AmpC of ECL, NCF)” value is listed as “X (Less than 0.1 μM)”. In experiment [4], the “Ki (CTX-M-14, NCF)” value was “X (Less than 0.1 μM)”.

With `COc1ccc2c(c1C(=O)O)OB(O)[C@@H](Sc1nnc(C(F)(F)F)n1N)C2` [Compound 64, (3R)-3-[[4-amino-5-(trifluoromethyl)-1,2,4-triazol-3-yl]sulfanyl]-2-hydroxy-7-methoxy-3,4-dihydro-1,2-benzoxaborinine-8-carboxylic acid], the Ki on NDM-1 [1] is > 100 nM; on NDM-1 [2], > 100 nM; in experiment [5], < 100 nM; in experiment [6] it was < 100 nM; in experiment [7], 100 to 1000 nM. At VIM-1, the concentration for half-maximal inhibition (IC50) is < 1000 nM. In experiment [3], the “Ki (P99/AmpC of ECL, NCF)” value was “Z (Greater than 1 μM)”. In addition, in experiment [4], the “Ki (CTX-M-14, NCF)” value is “X (Less than 0.1 μM)”.

Consider `COc1ccc2c(c1C(=O)O)OB(O)[C@@H](SC1CN(C3=NCCS3)C1)C2` [Compound 65, (3R)-3-[1-(4,5-dihydrothiazol-2-yl)azetidin-3-yl]sulfanyl-2-hydroxy-7-methoxy-3,4-dihydro-1,2-benzoxaborinine-8-carboxylic acid], for which the Ki was > 100 nM on NDM-1 [1]; > 100 nM at NDM-1 [2]; < 100 nM in experiment [5]; < 100 nM in experiment [6]; < 100 nM in experiment [7]. Further, the IC50 against VIM-1 was ≥ 1000 nM. Moreover, in experiment [3], the “Ki (P99/AmpC of ECL, NCF)” value is recorded as “Z (Greater than 1 μM)”. For the same molecule, the “Ki (CTX-M-14, NCF)” value in experiment [4] is given as “X (Less than 0.1 μM)”.

Consider `COc1ccc2c(c1C(=O)O)OB(O)[C@@H](Sc1nnc(CN)n1N)C2` [Compound 66, (3R)-3-[[4-amino-5-(aminomethyl)-1,2,4-triazol-3-yl]sulfanyl]-2-hydroxy-7-methoxy-3,4-dihydro-1,2-benzoxaborinine-8-carboxylic acid], for which the Ki is 10 to 100 nM on NDM-1 [1]; 10 to 100 nM at NDM-1 [2]; < 100 nM in experiment [5]; 100 to 1000 nM in experiment [6]; 100 to 1000 nM in experiment [7]. The IC50 against VIM-1 is < 1000 nM. Further, the “Ki (P99/AmpC of ECL, NCF)” value in experiment [3] is given as “Z (Greater than 1 μM)”. For the same molecule, the “Ki (CTX-M-14, NCF)” value in experiment [4] is “X (Less than 0.1 μM)”.
